According to patent US20090306221A1, “Use for Cannabinoid” (GW PHARMA LIMITED, priority 2006, published 2009):

Molecular target: human cannabinoid CB2 receptors (Homo sapiens, UniProt P34972)
Assay: [35S]GTPγS binding assay, hCB2-transfected CHO cell membranes
Conditions: stimulation of [35S]GTPγS binding
Description: CHO cells were stably transfected with cDNA encoding human cannabinoid CB2 receptors and were maintained at 37° C. and 5% CO2 in Dulbecco's Modified Eagle's Medium nutrient mixture.
The assays were carried out with GTPγS binding buffer (50 mM Tris-HCl; 50 mM Tris-Base; 5 mM MgCl2; 1 mM EDTA; 100 mM NaCl; 1 mM DTT; 0.1% BSA) in the presence of [^35S]GTPγS and GDP, in a final volume of 500 μl. Binding was initiated by the addition of [^35S]GTPγS to the tubes. The drugs were incubated in the assay for 60 min at 30° C. The reaction was terminated by a rapid vacuum filtration method using Tris buffer (50 mM Tris-HCl; 50 mM Tris-Base; 0.1% BSA), as described previously, and the radioactivity was quantified by liquid scintillation spectrometry.
The agonism of the CB1 or CB2 receptors by CP55940 results in a response in the cell. This response is the binding of [^35S]GTPγS to the cell membrane.
Changes in the response in the presence of the test compound can be measured in order to determine whether the compound is acting as an agonist, a neutral antagonist or an inverse agonist.

Chain of human cannabinoid CB2 receptors (P34972 whole entry): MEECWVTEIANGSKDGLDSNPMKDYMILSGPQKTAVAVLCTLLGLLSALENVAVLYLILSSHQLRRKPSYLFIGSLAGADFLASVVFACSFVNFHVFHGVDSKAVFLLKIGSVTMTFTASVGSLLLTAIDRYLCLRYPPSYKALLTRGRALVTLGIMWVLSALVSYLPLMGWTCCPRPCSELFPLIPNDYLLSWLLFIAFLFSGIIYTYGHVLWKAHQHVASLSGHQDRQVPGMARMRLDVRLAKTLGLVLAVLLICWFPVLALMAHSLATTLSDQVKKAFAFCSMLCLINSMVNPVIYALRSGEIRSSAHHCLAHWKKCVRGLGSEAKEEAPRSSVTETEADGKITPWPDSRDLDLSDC

Q: How did the “shift in the log-concentration response curve of CP55940” value turn out when SR144528 was run?
A: The value was “downward and rightward shift”.
